Test results reported in patent publication US20250049819A1, “METHODS FOR TREATING AND PREVENTING C. DIFFICILE INFECTION” (Paratek Pharmaceuticals, Inc., priority 2016, published 2025).
Converted amounts (≈) assume the structure as drawn.

Assays:
[1] = test system: C. difficile strains (N = 27); experiment: MIC by agar dilution against C. difficile clinical isolates; assay type: cell-based; conditions: Clostridioides difficile, 27 isolates
Method: The activity of omadacycline was tested in vitro against 27 clinical isolates of C. difficile. […] The experiments were carried out using broth and agar microdilution methods according to Clinical and Laboratory Standards Institute (CLSI) guidelines. […] Each test was run in duplicate.

[2] = test system: C. difficile PCR ribotype 027 strain 210; experiment: In vitro human gut model, C. difficile germination, proliferation and toxin production (Example 3); assay type: cell-based; conditions: 430 mg/L once daily for 7 days
Description: An in vitro gut model was used to study the effects of omadacycline instillation on both normal microflora populations and C. difficile. This gut model has been validated against gut contents from sudden death victims and provides a very close simulation of bacterial activities and composition in different areas of the hindgut (Macfarlane et al., Microb. Ecol. 35, 180-7, 1998). The model consists of three vessels aligned in series, and top-fed with a complex growth medium. All three vessels are continuously stirred, anaerobically maintained at 37° C. and regulated to reflect in vivo differences, including pH, from proximal to distal colon. The three anaerobic fermentation vessels are maintained at increasing alkalinity (from pH 5.5±0.2 for vessel 1; pH 6.2±0.2 for vessel 2; and pH 6.8±0.2 for vessel 3). The increasing alkalinity in combination with the nutrient limited conditions are designed to simulate the human gut from the proximal to the distal colon. […] At this stage, dietary ingredients, prebiotics, pathogens and/or antibiotics may be added, and the bacterial populations monitored. Specific components of the gut flora and relevant pathogens may be closely monitored and their behavior analyzed. […]
Gut microbiota bacterial populations and C. difficile total viable counts and spore counts were enumerated daily by culture on selective and non-selective agars. C. difficile populations were monitored in all three vessels, and all other bacterial groups (total obligate anaerobes, total facultative anaerobes, lactose fermenting enterobacteriaceae, enterococci, total clostridia, lactobacilli, bifidobacteria, B. fragilis group) were monitored in vessels 2 and 3 only. […] C. difficile total viable counts and spores counts were monitored using viable counting and a differential alcohol shock viable count on selective agars.
From day 14 onwards C. difficile cytotoxin was measured using a quantitative VERO cell cytotoxicity assay. […] Concentrations of omadacyline were measured by large-plate bioassay using Wilkins Chalgren agar with Kocuria rhizophila as the indicator organism.

CN(C)c1cc(CNCC(C)(C)C)c(O)c2c1C[C@H]1C[C@H]3[C@H](N(C)C)C(O)=C(C(N)=O)C(=O)[C@@]3(O)C(O)=C1C2=O (stereo in doubt) [Omadacycline]
MIC90 [1]: 0.12 µg/mL (≈ 0.216 µM)
C. difficile vegetative cell proliferation ([2]; all three vessels): no vegetative cell proliferation observed
signs of simulated C. difficile infection ([2]; all three vessels): did not lead to any signs of simulated C. difficile infection
C. difficile toxin detection (VERO cell cytotoxicity assay) ([2]; any vessels): No toxin was detected
